Test results reported in patent US20140096445A1, “METHOD OF CULTIVATION IN WATER DEFICIT CONDITIONS” (SYNGENTA PARTICIPATIONS AG, priority 2011, published 2014).
Marks after values point to notes of the source that are not given here.

Key:
Format in all cases: in vivo
corn [1] = assay: Greenhouse sub-surface chemigation, yield and root architecture under deficit water, Examples 20-23; settings: for Yield (% difference from UTC) / Relative number of fine roots (% difference from UTC): sub-surface chemigation at V3/V4, maximum labeled rates, 50% plant-available water; for Relative number of fine roots (% difference from UTC): within 2 weeks of harvest
Source text: (§1) In this experiment, standardized growth conditions were applied across all corn treatments including: soil-water availability, soil texture and composition, soil chemical and physical properties, meteorological and environmental parameters, and plant nutrition in a greenhouse. No indication of plant disease or pest damage was observed over the course of the study and no pest management program was necessary. A homogeneous sand-organic matter soil mixture (0.18% organic matter) was used as the growth medium in 55-gal containers. These containers were used as a weighing lysimeter, where daily changes in system weight were used to calculate plant transpiration. Four corn plants were grown in each 55-gal container. Three 55-gal containers (12 plants total) made up each treatment. All irrigation and chemical treatments were applied via sub-surface irrigation. Chemical treatments consisted of: azoxystrobin (Quadris), paclobutrazol (Trimmit), trinexapac-ethyl (Moddus), and propiconazole (Tilt) at maximum labeled rates.
(§2) Corn plants were grown from seed and transplanted in the 55-gal drums approximately 14 days after planting. Uniform adequate irrigation was applied up to growth stage V3/V4 to ensure plant establishment. Chemical treatment applications were applied at growth stage V3/V4 via sub-surface chemigation. At stage V3/V4, irrigation was decreased to replicate deficit water conditions across all treatments for the remainder of the study period. Irrigation was managed daily to maintain 50% plant-available water. Visual signs of abiotic plant stress were observed approximately 30 days after chemical application. All corn plants were grown to yield and cobs were harvested when kernels were uniformly dry (15% moisture content). Root architecture, specifically relative number of fine roots, was measured at within 2 weeks of harvest using a digital imaging technique. Fine roots are related to water uptake productivity, which is directly tied to the ability of the plant to access soil-water under stress.

corn [2] = assay: Greenhouse subsurface drip irrigation trial, deficit irrigated, Examples 4-8; settings: for % Yield Increase by Product over Untr./50% Irr. / Yield: SDI chemigated at V3/V4, 50% irrigated deficit, Azoxystrobin 261, PPZ 126, TXP 250, PBZ 12.5, TMX 70 gai/ha; for Yield compared with the control, in words: water stress regime (50% irrigated), SDI
Experimental: as §1, with “A greenhouse subsurface drip irrigation trial was conducted on corn to evaluate treatment effects on yield in fully irrigated vs. deficit irrigated conditions. In” for “In”
as §2

soybean [3] = assay: Sprinkler irrigation field study on soybean yield, deficit vs fully irrigated, Examples 27-28
Source text: Testing Procedure: The overall objective was to conduct an irrigation management test to study the effects of fungicides and crop enhancement products on yield, WUE, and disease control under full irrigation and deficit irrigation conditions. This was a sprinkler irrigation field study conducted on a deep silt loam soil. The test was set up to specifically quantify the impact of azoxystrobin and acibenzolar-S-methyl on soybean yield and water productivity of soybean under limited (deficit) and fully-irrigated settings. The study utilized a sprinkler irrigation system. The study was replicated three times in an […]. Irrigation control panels, chemical injection pumps, and filters were housed at the irrigation well house to manage irrigation and chemigation events.
Soil water status was monitored throughout the growing season using soil moisture sensors. Soybean variety NK S31-L7 was planted on May 11, 2011 at the rate of 150,000 seed per acre. Testing parameters, and irrigation levels were conducted according to the University of Nebraska experimental procedure [see e.g., (1) Irmak, et. al.] Moisture levels, irrigation levels, evapotranspiration, and plant health were measured throughout the growing season. Climatic variables were measured (air temperature, rainfall, solar and net radiation, relative humidity, rainfall, wind speed and direction) throughout the season. Irrigation for the fully irrigated treatments was scheduled according to need by a climatic water budget using calculated evapotranspiration as a withdrawal and with rainfall and irrigation as deposits. […] Volumetric soil water content was measured in one-foot increments to a depth of 8 ft on an approximately weekly basis throughout the crop season to determine total water use. Crop water use was calculated as the sum of irrigation, precipitation and changes in soil water between the initial and final soil water sampling dates. Water productivity (WUE) was calculated as the crop yield divided by the seasonal water use (Water Productivity (WP)=Yield/ETc). […]

soybean [4] = assay: Lateral-move sprinkler irrigation field study on soybean, Examples 29-30; settings: soybean, sprinkler irrigation
soybean [5] = assay: Sprinkler irrigation field study on soybean yield and WUE, Table 14 (treatments 31-32)
[6] = 60% irrigated deficit, Acibenzolar-S-methyl 10 gai/ha, Azoxy foliar 150 gai/ha + Acibenzolar-S-methyl 10 gai/ha

SMILES	Yield (% difference from UTC) (corn [1])	Relative number of fine roots (% difference from UTC) (corn [1])	Yield compared with the control, statistical statement (corn [1]; sub-surface chemigation, abiotic stress, P values <0.001 at the 95th percentile confidence interval)	% Yield Increase by Product over Untr./50% Irr. (corn [2])	Yield (corn [2])	Yield compared with the control, in words (corn [2])	Yield, statistical statement (soybean [3]; 60% Irrigation (deficit))	% Yield Increase over Untr./60% irr. (soybean [3]; [6])	Yield (soybean [3]; [6]) [Bu./acre]	Water productivity, in words (soybean [4])	Yield compared with the untreated, in words (soybean [5]; Azoxystrobin: foliar (2 applications) at 60% & 100% irrigated)	WUE differences, in words (soybean [5]; water deficit regime)
CC(C)(C)[C@@H](O)[C@@H](Cc1ccc(Cl)cc1)n1cncn1 (racemic) [PBZ, paclobutrazol]	16.6† %	70.0† %	statistically different from the control	+16.6% Incr. over Untr./50% Irr.	2152† Kg/Ha	statistically higher than the control	–	–	–	–	–	–
CSC(=O)c1cccc2nnsc12 [Acibenzolar-S-methyl, acibenzolar-S-methyl]	–	–	–	–	–	–	significant difference in yield	+1% over Untr./60% irr.	53.1	increase in water productivity	differences in yield over the untreated	Good WUE differences
CCCC1COC(Cn2cncn2)(c2ccc(Cl)cc2Cl)O1 (stereo not shown) [PPZ, propiconazole]	3.3%	39.4† %	–	+3.3% Incr. over Untr./50% Irr.	1906 Kg/Ha	statistically higher than the control	–	–	–	–	–	–
CN1COCN(Cc2cnc(Cl)s2)/C1=N\[N+](=O)[O-] [TMX, thiamethoxam]	–	–	–	+4% Incr. over Untr./50% Irr.	1916 Kg/Ha	–	–	–	–	–	–	–
